Test results from patent US20030215787A1, “Modulators of the CLC-7 chloride channel and methods for their identification and use in the treatment and prevention of osteoporosis and related disease states” (priority 2002, published 2003).

Experiments:
[1] = tested on: mature osteoclasts; settings: known non-specific chloride channel inhibitor; cited from earlier work
[2] = tested on: Raw264.7 cells; test: RNAi transfection and bone resorption (bovine cortical bone particles, C-telopeptide Crosslaps ELISA); assay type: cell-based, mouse; settings: 100 ng/ml RANKL, day 7, FIG. 2
Description: For RNAi transfection and bone resorption, the experiment was performed as follows: 1×10^4 Raw264.7 cells were seeded per 48 well and were cultured for 4 days with 100 ng/ml RANKL. The RNAi reagent was obtained from Sequitur. On day 4, the cells were transfected with 150 nM RNAi and 2 μg/ml lipofectamine overnight. The next day, the medium was replaced and 10 mg of powered bovine cortical bone particles (PelFreeze, Inc) were distributed into each well (James, I. E., et al. (1999) J. Bone Miner. Res., 14:1562-9). The particles were resuspended in […] of tissue culture media and incubated at 4° C. for 24 h storage. 200 μl bone particles were added to the precultured cells. The bone particles were allowed to settle for 10 min, and the cells were cultured for another 48 h at which time 100 μl of the supernatant was removed for the C-telopeptide Crosslaps™ ELISA analysis according to the manufacturer's instructions (Nordic Bioscience/Denmark). The absorbance was measured at 450 nm (Molecular Devices, Sunnyvale, Calif.).

Molecule	acidification of mature osteoclasts [1]	increase of bone resorption [2]
O=C(O)c1cccnc1Nc1cccc(C(F)(F)F)c1 [niflumic acid]	inhibits the acidification	
RANKL: recombinant soluble RANKL: extracellular domain of human RANKL (amino acids 158-317) fused to glutathione-S-transferase, expressed in E. coli (protein, UniProt O14788 158-317, looked up, fragment, extracellular domain GST fusion, recombinant soluble RANKL: extracellular domain of human RANKL (amino acids 158-317) fused to glutathione-S-transferase, expressed in E. coli) SKLEAQPFAHLTINATDIPSGSHKVSLSSWYHDRGWAKISNMTFSNGKLIVNQDGFYYLYANICFRHHETSGDLATEYLQLMVYVTKTSIKIPSSHTLMKGGSTKYWSGNSEFHFYSINVGGFFKLRSGEEISIEVSNPSLLDPDQDATYFGAFKVRDID		2.2 fold
